Where two headings read alike, the source gives them in different places. Non-standard residues stand in square brackets, D forms with d. Residues, ends and D or L forms follow the SMILES beside them. hArg = N=C(N)NCCCC[C@H](N)C(=O)O
Columns and labels:
JB181 (synthetic) = test: EMSA
HIV-1 TAR RNA = assay type: binding; details: EMSA, positional scanning library, Table S1
Procedure: (§1) Electro Mobility Shift Assays (EMSA) and 2-aminopurine fluorescence ([35]) were used to measure peptide binding. For EMSA, all RNAs were 5′-dephosphorylated ([25],[26]) and 5′-rephosphorylated using T4 Polynucleotide Kinase (PNK); shifts were performed and analyzed as previously described ([14]). The P-TEFb/Tat1:57/AFF4 binding assays were run as described ([11]), with protein samples generously donated by Drs Ursula Schulze-Gahmen and James Hurley, but binding buffers contained 250× fold excess yeast tRNA. JB181-bound samples were prepared with 3× excess labeled HIV-TAR prior to titration with the pre-formed P-TEFb/Tat1:57/AFF4 complex.
(§2) Fig. S1. a) HIV-1 TAR, BIV TAR and 7SK-SL4 RNAs have similar secondary structures, but the JB181 peptide discriminates between them. […]
(§3) tightly than BIV TAR (3.3 nM) or 7SK (>3 μM) RNAs. b) EMSA of representative JB-peptides with 32P radiolabeled HIV-1 TAR RNA ([RNA]=75pM). The peptide concentration increases from left to right, as indicated. The dissociation constant can be estimated by the peptide concentration where there is an approximate 1:1 ratio (as established by visual inspection) between free RNA and complex, since the RNA concentration is much lower than the KD.
(§4) (1 picture or pasted object on this page, not shown here)

BIV TAR RNA = test: EMSA binding to BIV TAR; details: positional scanning library, Table S1
Procedure: as §1, §2, §3, §4

[1] = with tRNA, read-out: Kd (nM) w/tRNA
[2] = without tRNA, read-out: Kd (nM) no tRNA

Compound | Kd (JB181 (synthetic); EMSA: 32P RNA (75-100 pM), 250-fold excess tRNA, buffer as in cited work (not given), 2-AP fluorescence: 100 fM RNA, NMR: 10 mM K phosphate pH 6.5, 10 mM NaCl …) [nM] | Kd (HIV-1 TAR RNA; [1]) [nM] | Kd (HIV-1 TAR RNA; [2]) [nM] | Kd (BIV TAR RNA) [nM] | Kd (JB181 (synthetic)) [nM]
7SK-SL4 | > 3000 | – | – | – | –
CC[C@H](C)[C@@H]1NC(=O)[C@H](CCCNC(=N)N)NC(=O)[C@H](CCCNC(=N)N)NC(=O)CNC(=O)[C@H](CCCCN)NC(=O)[C@H](CCCNC(=N)N)NC(=O)[C@H]([C@@H](C)O)NC(=O)[C@H](CCCNC(=N)N)NC(=O)[C@H](C(C)C)NC(=O)[C@H](CCCCN)NC(=O)[C@@H]2CCCN2C(=O)[C@H]2CCCN2C(=O)[C@H]([C@@H](C)CC)NC(=O)[C@H](CCCNC(=N)N)NC1=O [JB-60] (cyclo(KVRTRKGRRIRI[dP]P)) | – | 300 | 3 | > 5000 | –
CC[C@H](C)[C@@H]1NC(=O)[C@H](CCCNC(=N)N)NC(=O)[C@H](CCCNC(=N)N)NC(=O)CNC(=O)[C@H](CCCCN)NC(=O)[C@H](CCCNC(=N)N)NC(=O)[C@H]([C@@H](C)O)NC(=O)[C@H](CCCNC(=N)N)NC(=O)[C@H](Cc2ccc(O)cc2)NC(=O)[C@H](CCCNC(=N)N)NC(=O)[C@@H]2CCCN2C(=O)[C@H]2CCCN2C(=O)[C@H]([C@@H](C)CC)NC(=O)[C@H](CCCNC(=N)N)NC1=O [JB-62] (cyclo(RYRTRKGRRIRI[dP]P)) | – | 150 | 1 to 5 | 10 | –
CC[C@H](C)[C@@H]1NC(=O)[C@H](CCCNC(=N)N)NC(=O)[C@H](CCCNC(=N)N)NC(=O)CNC(=O)[C@H](CCCCN)NC(=O)[C@H](CCCNC(=N)N)NC(=O)[C@H]([C@@H](C)O)NC(=O)[C@H](CCCNC(=N)N)NC(=O)[C@H](CC(N)=O)NC(=O)[C@H](CCCNC(=N)N)NC(=O)[C@@H]2CCCN2C(=O)[C@H]2CCCN2C(=O)[C@H]([C@@H](C)CC)NC(=O)[C@H](CCCNC(=N)N)NC1=O [JB-63] (cyclo(RNRTRKGRRIRI[dP]P)) | – | 100 | 1 | < 1 | –
CC[C@H](C)[C@@H]1NC(=O)[C@H](CCCNC(=N)N)NC(=O)[C@H](CCCNC(=N)N)NC(=O)CNC(=O)[C@H](CCCCN)NC(=O)[C@H](CCCNC(=N)N)NC(=O)[C@H]([C@@H](C)O)NC(=O)[C@H](CCCNC(=N)N)NC(=O)[C@H]([C@@H](C)O)NC(=O)[C@H](CCCNC(=N)N)NC(=O)[C@@H]2CCCN2C(=O)[C@H]2CCCN2C(=O)[C@H]([C@@H](C)CC)NC(=O)[C@H](CCCNC(=N)N)NC1=O [JB-65] (cyclo(RTRTRKGRRIRI[dP]P)) | – | 50 | 1 | < 1 | –
CC[C@H](C)[C@@H]1NC(=O)[C@H](CCCNC(=N)N)NC(=O)[C@H](CCCNC(=N)N)NC(=O)CNC(=O)[C@H](CCCCN)NC(=O)[C@H](CCCNC(=N)N)NC(=O)[C@H]([C@@H](C)O)NC(=O)[C@H](CCCNC(=N)N)NC(=O)[C@H](C)NC(=O)[C@H](CCCNC(=N)N)NC(=O)[C@@H]2CCCN2C(=O)[C@H]2CCCN2C(=O)[C@H]([C@@H](C)CC)NC(=O)[C@H](CCCNC(=N)N)NC1=O [JB-66] (cyclo(RARTRKGRRIRI[dP]P)) | – | 100 | 1 | 1 | –
CC[C@H](C)[C@@H]1NC(=O)[C@H](CCCNC(=N)N)NC(=O)[C@H](C)NC(=O)[C@H](CCCNC(=N)N)NC(=O)[C@H](CCCNC(=N)N)NC(=O)CNC(=O)[C@H](CCCCN)NC(=O)[C@H](CCCNC(=N)N)NC(=O)[C@H]([C@@H](C)O)NC(=O)[C@H](CCCNC(=N)N)NC(=O)[C@H](C(C)C)NC(=O)[C@H](CCCNC(=N)N)NC(=O)[C@@H]2CCCN2C(=O)[C@H]2CCCN2C1=O [JB-75] (cyclo(RVRTRKGRRARI[dP]P)) | – | 300 | 5 | 1 to 5 | –
CC[C@H](C)[C@@H]1NC(=O)[C@H](CCCNC(=N)N)NC(=O)[C@H](C(C)C)NC(=O)[C@H](CCCNC(=N)N)NC(=O)[C@H](CCCNC(=N)N)NC(=O)CNC(=O)[C@H](CCCCN)NC(=O)[C@H](CCCNC(=N)N)NC(=O)[C@H]([C@@H](C)O)NC(=O)[C@H](CCCNC(=N)N)NC(=O)[C@H](C(C)C)NC(=O)[C@H](CCCNC(=N)N)NC(=O)[C@@H]2CCCN2C(=O)[C@H]2CCCN2C1=O [JB-76] (cyclo(RVRTRKGRRVRI[dP]P)) | – | < 50 | 1 | 1 | –
CC[C@H](C)[C@@H]1NC(=O)[C@H](CCCNC(=N)N)NC(=O)[C@H](CCCNC(=N)N)NC(=O)CNC(=O)[C@H](CCCCN)NC(=O)[C@H](CCCNC(=N)N)NC(=O)[C@H]([C@@H](C)O)NC(=O)[C@H](CCCNC(=N)N)NC(=O)[C@H](C(C)C)NC(=O)[C@H](CCCNC(=N)N)NC(=O)[C@@H]2CCCN2C(=O)[C@H]2CCCN2C(=O)[C@H](C(C)C)NC(=O)[C@H](CCCNC(=N)N)NC1=O [JB-84] (cyclo(RVRTRKGRRIRV[dP]P)) | – | 50 | 1 | 1 | –
CC[C@H](C)[C@@H]1NC(=O)[C@H](CCCNC(=N)N)NC(=O)[C@H](CCCNC(=N)N)NC(=O)CNC(=O)[C@H](CCCCN)NC(=O)[C@H](CCCNC(=N)N)NC(=O)[C@H]([C@@H](C)O)NC(=O)[C@H](CCCNC(=N)N)NC(=O)[C@H](C(C)C)NC(=O)[C@H](CCCNC(=N)N)NC(=O)[C@@H]2CCCN2C(=O)[C@H]2CCCN2C(=O)[C@H](CC(C)C)NC(=O)[C@H](CCCNC(=N)N)NC1=O [JB-85] (cyclo(RVRTRKGRRIRL[dP]P)) | – | 50 | 5 | 1 | –
CC[C@H](C)[C@@H]1NC(=O)[C@H](CCCNC(=N)N)NC(=O)[C@H](CCCNC(=N)N)NC(=O)CNC(=O)[C@H](CCCCN)NC(=O)[C@H](CCCNC(=N)N)NC(=O)[C@H]([C@@H](C)O)NC(=O)[C@H](CCCCNC(=N)N)NC(=O)[C@H](C(C)C)NC(=O)[C@H](CCCNC(=N)N)NC(=O)[C@@H]2CCCN2C(=O)[C@H]2CCCN2C(=O)[C@H]([C@@H](C)CC)NC(=O)[C@H](CCCNC(=N)N)NC1=O [KP-Y-02] (cyclo(RV[hArg]TRKGRRIRI[dP]P)) | – | 200 | – | – | –
CC[C@H](C)[C@@H]1NC(=O)[C@H](CCCNC(=N)N)NC(=O)[C@H](CCCNC(=N)N)NC(=O)CNC(=O)[C@H](CCCCN)NC(=O)[C@H](CCCCNC(=N)N)NC(=O)[C@H]([C@@H](C)O)NC(=O)[C@H](CCCNC(=N)N)NC(=O)[C@H](C(C)C)NC(=O)[C@H](CCCNC(=N)N)NC(=O)[C@@H]2CCCN2C(=O)[C@H]2CCCN2C(=O)[C@H]([C@@H](C)CC)NC(=O)[C@H](CCCNC(=N)N)NC1=O [KP-Y-03] (cyclo(RVRT[hArg]KGRRIRI[dP]P)) | – | 200 | – | – | –
CC[C@H](C)[C@@H]1NC(=O)[C@H](CCCNC(=N)N)NC(=O)[C@H](CCCCNC(=N)N)NC(=O)CNC(=O)[C@H](CCCCN)NC(=O)[C@H](CCCNC(=N)N)NC(=O)[C@H]([C@@H](C)O)NC(=O)[C@H](CCCNC(=N)N)NC(=O)[C@H](C(C)C)NC(=O)[C@H](CCCNC(=N)N)NC(=O)[C@@H]2CCCN2C(=O)[C@H]2CCCN2C(=O)[C@H]([C@@H](C)CC)NC(=O)[C@H](CCCNC(=N)N)NC1=O [KP-Y-04] (cyclo(RVRTRKG[hArg]RIRI[dP]P)) | – | 75 | – | – | –
CC[C@H](C)[C@@H]1NC(=O)[C@H](CCCCNC(=N)N)NC(=O)[C@H](CCCNC(=N)N)NC(=O)CNC(=O)[C@H](CCCCN)NC(=O)[C@H](CCCNC(=N)N)NC(=O)[C@H]([C@@H](C)O)NC(=O)[C@H](CCCNC(=N)N)NC(=O)[C@H](C(C)C)NC(=O)[C@H](CCCNC(=N)N)NC(=O)[C@@H]2CCCN2C(=O)[C@H]2CCCN2C(=O)[C@H]([C@@H](C)CC)NC(=O)[C@H](CCCNC(=N)N)NC1=O [KP-Y-05] (cyclo(RVRTRKGR[hArg]IRI[dP]P)) | – | 100 | – | – | –
GGCUCGUGUAGCUCAUUAGCUCCGAGCC [BIV TAR] | – | – | – | – | 3.3
HIV-1 TAR A35C | – | – | – | – | < 1.3
HIV-1 TAR A35G, G28A | – | – | – | – | 11
HIV-1 TAR A35G, G28C | – | – | – | – | 10
HIV-1 TAR A35del | – | – | – | – | < 1.3
HIV-1 TAR G32A, G36A | – | – | – | – | < 0.166
HIV-1 TAR G33A, G34A, G21A | – | – | – | – | 70
HIV-1 TAR U25C | – | – | – | – | 1
